According to patent US20240124491A1, “METHODS AND COMPOUNDS FOR TREATING FRIEDREICH'S ATAXIA” (Design Therapeutics, Inc., priority 2021, published 2024):

Tested on: human FXN
Assay: EC50 assay: FXN mRNA expression by qRT-PCR in GM15850 cells after 48 hrs compound treatment
Format: cell-based
Conditions: Homo sapiens, 48 hrs incubation, hFXN expression normalized to hGAPDH (qRT-PCR), read-out: EC50 WT (nM, 48 hr)
Experimental: Cell culture: Cells were cultured in RPMI1640 medium+15% FBS. Cells were maintained at a density between 2e5/mL and 1e6/mL. Cells were centrifuged, resuspended in fresh medium, counted and plated at 150,000 cells per well in 100 uL in a non-coated, flat bottom tissue culture plate.
Compound treatment: 10 mM stock solution of FA GeneTAC was diluted 1:10 in DMSO followed by a 1:100 dilution in growth medium. Working solution was then further diluted to 10× desired final concentration of 150 nM. Compound was then diluted at a 1:3 ratio into growth medium containing 0.01% DMSO. 5-point, 3-fold dose response curve was generated. 11 μL of 1OX compound was added to wells containing 100 μL cell suspension of GM15850. 11 μL growth medium containing 0.01% DMSO was added to all wells not treated with FA GeneTAC. Cells were allowed to incubate for 48 hrs prior to cell lysis using guanidine isothiocyanate solution.
RNA isolation: Total RNA was isolated and purified in 384-well column filter plates using chaotropic salt.
qRT-PCR: qRT-PCR reactions were assembled using AgPath-ID reagents (Thermo Fisher) using 6 uL mastermix and 4 μL RNA. qRT-PCR TaqMan primer probe sets against human FXN (Assay ID Hs01075496_m1) and human GAPDH (Assay ID Hs00266705_g1) were used to measure the intended targets. qRT-PCR was run on the ThermoFisher QuantStudio 6 PRO instrument using the manufacturer's recommended cycling conditions.
Data analysis: qPCR data was analyzed using Thermo Fisher Design and Analysis software. Data was exported to Excel and hFXN expression was normalized to hGAPDH expression
A<100 nM; B is 100 nM to 500 nM; C>500 nM.

Row | SMILES | EC50 [nM]
1 | Cc1sc2c(c1C)C(c1ccc(Cl)cc1)=N[C@@H](CC(=O)Nc1ccc(N3CCN(CCOCCOCCOCCOCCOCCOCCOCCNC(=O)CCNC(=O)c4nc(NC(=O)CCNC(=O)c5cc(NC(=O)c6nc(NC(=O)CCNC(=O)c7cc(NC(=O)c8nccn8C)cn7C)cn6C)cn5C)cn4C)CC3)cc1)c1nnc(C)n1-2 [Compound 2] | < 100
2 | Cc1sc2c(c1C)C(c1ccc(Cl)cc1)=N[C@@H](CC(=O)Nc1ccc(N3CCN(CCOCCOCCOCCOCCOCCOCCNC(=O)CCNC(=O)c4nc(NC(=O)CCNC(=O)c5cc(NC(=O)c6nc(NC(=O)CCNC(=O)c7cc(NC(=O)c8nccn8C)cn7C)cn6C)cn5C)cn4C)CC3)cc1)c1nnc(C)n1-2 [Compound 3] | < 100
3 | Cc1sc2c(c1C)C(c1ccc(Cl)cc1)=N[C@@H](CC(=O)Nc1ccc(N3CCN(CCOCCOCCOCCOCCOCCNC(=O)CCNC(=O)c4nc(NC(=O)CCNC(=O)c5cc(NC(=O)c6nc(NC(=O)CCNC(=O)c7cc(NC(=O)c8nccn8C)cn7C)cn6C)cn5C)cn4C)CC3)cc1)c1nnc(C)n1-2 [Compound 4] | < 100
4 | Cc1sc2c(c1C)C(c1ccc(Cl)cc1)=N[C@@H](CC(=O)Nc1ccc(N3CCN(CC4CCN(CCOCCOCCOCCOCCOCCNC(=O)CCNC(=O)c5nc(NC(=O)CCNC(=O)c6cc(NC(=O)c7nc(NC(=O)CCNC(=O)c8cc(NC(=O)c9nccn9C)cn8C)cn7C)cn6C)cn5C)CC4)CC3)cc1)c1nnc(C)n1-2 [Compound 5] | 100 to 500
5 | Cc1sc2c(c1C)C(c1ccc(Cl)cc1)=N[C@@H](CC(=O)Nc1ccc(N3CCN(CC4CCN(CCOCCOCCOCCOCCNC(=O)CCNC(=O)c5nc(NC(=O)CCNC(=O)c6cc(NC(=O)c7nc(NC(=O)CCNC(=O)c8cc(NC(=O)c9nccn9C)cn8C)cn7C)cn6C)cn5C)CC4)CC3)cc1)c1nnc(C)n1-2 [Compound 6] | 100 to 500
6 | Cc1sc2c(c1C)C(c1ccc(Cl)cc1)=N[C@@H](CC(=O)Nc1ccc(N3CCN(CC4CCN(CCOCCOCCOCCNC(=O)CCNC(=O)c5nc(NC(=O)CCNC(=O)c6cc(NC(=O)c7nc(NC(=O)CCNC(=O)c8cc(NC(=O)c9nccn9C)cn8C)cn7C)cn6C)cn5C)CC4)CC3)cc1)c1nnc(C)n1-2 [Compound 7] | 100 to 500
7 | Cc1sc2c(c1C)C(c1ccc(Cl)cc1)=N[C@@H](CC(=O)Nc1ccc(N3CCC(N4CCN(CCOCCOCCOCCOCCOCCOCCNC(=O)CCNC(=O)c5nc(NC(=O)CCNC(=O)c6cc(NC(=O)c7nc(NC(=O)CCNC(=O)c8cc(NC(=O)c9nccn9C)cn8C)cn7C)cn6C)cn5C)CC4)CC3)cc1)c1nnc(C)n1-2 [Compound 8] | < 100
8 | Cc1sc2c(c1C)C(c1ccc(Cl)cc1)=N[C@@H](CC(=O)Nc1ccc(N3CCC(N4CCN(CCOCCOCCOCCOCCOCCNC(=O)CCNC(=O)c5nc(NC(=O)CCNC(=O)c6cc(NC(=O)c7nc(NC(=O)CCNC(=O)c8cc(NC(=O)c9nccn9C)cn8C)cn7C)cn6C)cn5C)CC4)CC3)cc1)c1nnc(C)n1-2 [Compound 9] | < 100
9 | Cc1sc2c(c1C)C(c1ccc(Cl)cc1)=N[C@@H](CC(=O)Nc1ccc(N3CCC(N4CCN(CCOCCOCCOCCOCCNC(=O)CCNC(=O)c5nc(NC(=O)CCNC(=O)c6cc(NC(=O)c7nc(NC(=O)CCNC(=O)c8cc(NC(=O)c9nccn9C)cn8C)cn7C)cn6C)cn5C)CC4)CC3)cc1)c1nnc(C)n1-2 [Compound 10] | < 100
10 | Cc1sc2c(c1C)C(c1ccc(Cl)cc1)=N[C@@H](CC(=O)Nc1ccc(C#CC3CCN(CCOCCOCCOCCOCCOCCOCCNC(=O)CCNC(=O)c4nc(NC(=O)CCNC(=O)c5cc(NC(=O)c6nc(NC(=O)CCNC(=O)c7cc(NC(=O)c8nccn8C)cn7C)cn6C)cn5C)cn4C)CC3)cc1)c1nnc(C)n1-2 [Compound 11] | < 100
11 | Cc1sc2c(c1C)C(c1ccc(Cl)cc1)=N[C@@H](CC(=O)Nc1ccc(C#CC3CCN(CCOCCOCCOCCOCCOCCNC(=O)CCNC(=O)c4nc(NC(=O)CCNC(=O)c5cc(NC(=O)c6nc(NC(=O)CCNC(=O)c7cc(NC(=O)c8nccn8C)cn7C)cn6C)cn5C)cn4C)CC3)cc1)c1nnc(C)n1-2 [Compound 12] | < 100
